# According to PubChem BioAssay (NCI):
#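 Interpolation was linear, between the two tested concentrations surrounding the appropriate level; five concentrations were tested over 48 hours in 96-well plates. Here, GI50 denotes the concentration required for 50% inhibition of growth. TGI: total growth inhibition.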
# What was measured:
# Assay in all cases: NCI anticancer screen, dose series, 48 h
# MDA-MB-435 = system: MDA-MB-435
# A498 renal = system: A498 renal
# HT29 colon = system: HT29 colon
# HCT-116 colon = system: HCT-116 colon
# HOP-62 NSCLC = system: HOP-62 NSCLC
# KM12 colon = system: KM12 colon
# HS 578T breast = system: HS 578T breast
# K-562 leukemia = system: K-562 leukemia
# SNB-19 CNS = system: SNB-19 CNS
# SW-620 colon = system: SW-620 colon
# RPMI-8226 leukemia = system: RPMI-8226 leukemia
# OVCAR-4 ovarian = system: OVCAR-4 ovarian
# SK-MEL-28 melanoma = system: SK-MEL-28 melanoma
# BT-549 breast = system: BT-549 breast
# LOX IMVI melanoma = system: LOX IMVI melanoma
# SF-295 CNS = system: SF-295 CNS
# MOLT-4 leukemia = system: MOLT-4 leukemia
# PC-3 prostate = system: PC-3 prostate
# A549 NSCLC = system: A549 NSCLC
# MCF7 breast = system: MCF7 breast
# SK-OV-3 ovarian = system: SK-OV-3 ovarian
# SF-539 CNS = system: SF-539 CNS
# ACHN renal = system: ACHN renal
# NCI-H226 lung = system: NCI-H226 lung
# UACC-257 melanoma = system: UACC-257 melanoma
# 786-0 renal = system: 786-0 renal
# U251 CNS = system: U251 CNS
# COLO 205 colon = system: COLO 205 colon
# NCI/ADR-RES ovarian = system: NCI/ADR-RES ovarian
# CAKI-1 renal = system: CAKI-1 renal
# TK-10 renal = system: TK-10 renal
# UO-31 renal = system: UO-31 renal
# MALME-3M melanoma = system: MALME-3M melanoma
# DU-145 prostate = system: DU-145 prostate
# CCRF-CEM leukemia = system: CCRF-CEM leukemia
# OVCAR-5 ovarian = system: OVCAR-5 ovarian
# OVCAR-8 ovarian = system: OVCAR-8 ovarian
# T-47D breast = system: T-47D breast
# SNB-75 CNS = system: SNB-75 CNS
# M14 melanoma = system: M14 melanoma
# OVCAR-3 ovarian = system: OVCAR-3 ovarian
# EKVX NSCLC = system: EKVX NSCLC
# RXF 393 renal = system: RXF 393 renal
# HOP-92 NSCLC = system: HOP-92 NSCLC
# SK-MEL-5 melanoma = system: SK-MEL-5 melanoma
# NCI-H460 lung = system: NCI-H460 lung
# IGROV1 ovarian = system: IGROV1 ovarian
# HCC-2998 colon = system: HCC-2998 colon
# SR leukemia = system: SR leukemia
# NCI-H522 lung = system: NCI-H522 lung
# MDA-MB-231 breast = system: MDA-MB-231 breast
# HL-60(TB) leukemia = system: HL-60(TB) leukemia
# HCT-15 colon = system: HCT-15 colon
# SK-MEL-2 melanoma = system: SK-MEL-2 melanoma
# SF-268 CNS = system: SF-268 CNS
# UACC-62 melanoma = system: UACC-62 melanoma
# SN12C renal = system: SN12C renal
compound,measurement,setting,value
CNC(=O)c1cc(-n2ccc3cc(NC(=O)Nc4ccc(N5CCOCC5)c(C(F)(F)F)c4)ccc32)ccn1,GI50,MDA-MB-435,5.73 µM
same,TGI,MDA-MB-435,> 33.3 µM
same,GI50,A498 renal,> 33.3 µM
same,TGI,A498 renal,> 33.3 µM
same,GI50,HT29 colon,2.01 µM
same,TGI,HT29 colon,> 33.3 µM
same,GI50,HCT-116 colon,2.09 µM
same,TGI,HCT-116 colon,> 33.3 µM
same,GI50,HOP-62 NSCLC,1.52 µM
same,TGI,HOP-62 NSCLC,14.6 µM
same,GI50,KM12 colon,0.159 µM
same,TGI,KM12 colon,> 33.3 µM
same,GI50,HS 578T breast,1.85 µM
same,TGI,HS 578T breast,> 33.3 µM
same,GI50,K-562 leukemia,1.24 µM
same,TGI,K-562 leukemia,> 33.3 µM
same,GI50,SNB-19 CNS,15 µM
same,TGI,SNB-19 CNS,> 33.3 µM
same,GI50,SW-620 colon,8.36 µM
same,TGI,SW-620 colon,> 33.3 µM
same,GI50,RPMI-8226 leukemia,1.04 µM
same,TGI,RPMI-8226 leukemia,3.11 µM
same,GI50,OVCAR-4 ovarian,7.76 µM
same,TGI,OVCAR-4 ovarian,> 33.3 µM
same,GI50,SK-MEL-28 melanoma,11.7 µM
same,TGI,SK-MEL-28 melanoma,> 33.3 µM
same,GI50,BT-549 breast,1.27 µM
same,TGI,BT-549 breast,8.9 µM
same,GI50,LOX IMVI melanoma,0.251 µM
same,TGI,LOX IMVI melanoma,> 33.3 µM
same,GI50,SF-295 CNS,0.938 µM
same,TGI,SF-295 CNS,3.24 µM
same,GI50,MOLT-4 leukemia,1.93 µM
same,TGI,MOLT-4 leukemia,> 33.3 µM
same,GI50,PC-3 prostate,1.31 µM
same,TGI,PC-3 prostate,> 33.3 µM
same,GI50,A549 NSCLC,5.15 µM
same,TGI,A549 NSCLC,> 33.3 µM
same,GI50,MCF7 breast,1.7 µM
same,TGI,MCF7 breast,> 33.3 µM
same,GI50,SK-OV-3 ovarian,26.7 µM
same,TGI,SK-OV-3 ovarian,> 33.3 µM
same,GI50,SF-539 CNS,1.41 µM
same,TGI,SF-539 CNS,> 33.3 µM
same,GI50,ACHN renal,5.69 µM
same,TGI,ACHN renal,> 33.3 µM
same,GI50,NCI-H226 lung,3.69 µM
same,TGI,NCI-H226 lung,> 33.3 µM
same,GI50,UACC-257 melanoma,8.89 µM
same,TGI,UACC-257 melanoma,> 33.3 µM
same,GI50,786-0 renal,2.89 µM
same,TGI,786-0 renal,> 33.3 µM
same,GI50,U251 CNS,3.23 µM
same,TGI,U251 CNS,> 33.3 µM
same,GI50,COLO 205 colon,2.09 µM
same,TGI,COLO 205 colon,> 33.3 µM
same,GI50,NCI/ADR-RES ovarian,7.51 µM
same,TGI,NCI/ADR-RES ovarian,> 33.3 µM
same,GI50,CAKI-1 renal,10 µM
same,TGI,CAKI-1 renal,> 33.3 µM
same,GI50,TK-10 renal,27.6 µM
same,TGI,TK-10 renal,> 33.3 µM
same,GI50,UO-31 renal,3.55 µM
same,TGI,UO-31 renal,> 33.3 µM
same,GI50,MALME-3M melanoma,3.89 µM
same,TGI,MALME-3M melanoma,> 33.3 µM
same,GI50,DU-145 prostate,10.4 µM
same,TGI,DU-145 prostate,> 33.3 µM
same,GI50,CCRF-CEM leukemia,1.53 µM
same,TGI,CCRF-CEM leukemia,> 33.3 µM
same,GI50,OVCAR-5 ovarian,14.6 µM
same,TGI,OVCAR-5 ovarian,> 33.3 µM
same,GI50,OVCAR-8 ovarian,4.5 µM
same,TGI,OVCAR-8 ovarian,> 33.3 µM
same,GI50,T-47D breast,0.907 µM
same,TGI,T-47D breast,15.5 µM
same,GI50,SNB-75 CNS,6.38 µM
same,TGI,SNB-75 CNS,> 33.3 µM
same,GI50,M14 melanoma,3.11 µM
same,TGI,M14 melanoma,> 33.3 µM
same,GI50,OVCAR-3 ovarian,6.48 µM
same,TGI,OVCAR-3 ovarian,> 33.3 µM
same,GI50,EKVX NSCLC,> 33.3 µM
same,TGI,EKVX NSCLC,> 33.3 µM
same,GI50,RXF 393 renal,0.595 µM
same,TGI,RXF 393 renal,1.62 µM
same,GI50,HOP-92 NSCLC,2.11 µM
same,TGI,HOP-92 NSCLC,> 33.3 µM
same,GI50,SK-MEL-5 melanoma,1.32 µM
same,TGI,SK-MEL-5 melanoma,7.58 µM
same,GI50,NCI-H460 lung,4.39 µM
same,TGI,NCI-H460 lung,> 33.3 µM
same,GI50,IGROV1 ovarian,3.87 µM
same,TGI,IGROV1 ovarian,> 33.3 µM
same,GI50,HCC-2998 colon,11.5 µM
same,TGI,HCC-2998 colon,> 33.3 µM
same,GI50,SR leukemia,1.88 µM
same,TGI,SR leukemia,> 33.3 µM
same,GI50,NCI-H522 lung,2.9 µM
same,TGI,NCI-H522 lung,> 33.3 µM
same,GI50,MDA-MB-231 breast,17.9 µM
same,TGI,MDA-MB-231 breast,> 33.3 µM
same,GI50,HL-60(TB) leukemia,1.62 µM
same,TGI,HL-60(TB) leukemia,> 33.3 µM
same,GI50,HCT-15 colon,1.93 µM
same,TGI,HCT-15 colon,> 33.3 µM
same,GI50,SK-MEL-2 melanoma,11.3 µM
same,TGI,SK-MEL-2 melanoma,> 33.3 µM
same,GI50,SF-268 CNS,27.2 µM
same,TGI,SF-268 CNS,> 33.3 µM
same,GI50,UACC-62 melanoma,1.27 µM
same,TGI,UACC-62 melanoma,14.7 µM
same,GI50,SN12C renal,9.21 µM
same,TGI,SN12C renal,> 33.3 µM
